Data reported in patent US11597703B2, “Caspase inhibitors and methods of use thereof” (Histogen Inc., priority 2019, dated 2023).
Each block holds one molecule with its values, some of them ahead of it.

Assays:
Caspase-1 = molecular target: T1, Caspase-1 (Homo sapiens, UniProt P29466); assay: Caspase-1 enzyme inhibition assay (Ac-YVAD-pNA substrate), IC50; assay type: biochemical
T1 construct: purchased Enzo Biosciences
T1 sequence (P29466 120-297 limits assumed): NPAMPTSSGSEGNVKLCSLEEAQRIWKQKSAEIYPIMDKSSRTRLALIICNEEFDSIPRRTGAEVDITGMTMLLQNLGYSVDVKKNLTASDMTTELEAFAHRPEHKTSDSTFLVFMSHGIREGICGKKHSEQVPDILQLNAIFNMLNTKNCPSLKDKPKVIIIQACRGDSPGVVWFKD
T1 sequence (P29466 317-404 limits assumed): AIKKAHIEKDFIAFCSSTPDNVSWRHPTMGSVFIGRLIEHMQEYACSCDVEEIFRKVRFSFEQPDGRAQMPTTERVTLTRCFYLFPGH
Description: (§1) Human caspases were purchased from Enzo Biosciences and used according to the manufacturer's instructions. An exemplary caspase assay, for Caspase-1, is provided below:
Caspase-1 was diluted to 10 U/μl in assay buffer consisting of 50 mM HEPES, pH 7.4, 100 mM NaCl, 0.1% CHAPS, 1 mM EDTA, 10% glycerol and 10 mM DTT.
45 μl of assay buffer was added into ½ volume microtiter plate. The plate was allowed to equilibrate to assay temperature. 5 μl of Caspase-1 (10 U/μl) was added to each appropriate well. Two 2 blank wells containing assay buffer alone without Caspase-1 were included on the plate.
The reaction was started by the addition of 50 μl Ac-YVAD-pNA substrate, for a final substrate concentration of 200 μM. The reaction was continuously monitored at 405 nm. The data was graphed as OD405 nm vs time, and the slope was determined over the linear portion of the curve. The rates in OD/min were converted to substrate/min using an extinction coefficient for p-nitroaniline of 10,500M-1 cm-1, and were adjusted for pathlength of sample. […]

Caspase-3 = molecular target: T2, Caspase-3 (Homo sapiens, UniProt P42574); assay: Caspase-3 enzymatic inhibition assay, IC50; assay type: biochemical; settings: read-out: Caspase 3 enzyme inhibition IC50
T2 construct: purchased Enzo Biosciences
T2 sequence (P42574 29-175 limits assumed): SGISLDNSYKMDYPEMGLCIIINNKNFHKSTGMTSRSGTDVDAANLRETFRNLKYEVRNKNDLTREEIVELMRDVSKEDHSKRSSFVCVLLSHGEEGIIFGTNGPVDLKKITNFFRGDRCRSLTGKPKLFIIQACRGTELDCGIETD
T2 sequence (P42574 176-277 limits assumed): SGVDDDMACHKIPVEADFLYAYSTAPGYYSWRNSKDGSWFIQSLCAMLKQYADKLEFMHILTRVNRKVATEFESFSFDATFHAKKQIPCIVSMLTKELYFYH
Description: as §1
(§2) Enzymatic assays were conducted for Caspase-3, 6 and 7 activity according to the manufacture's instructions.

Caspase 6 = molecular target: T3, Caspase 6 (Homo sapiens, UniProt P55212); assay: Caspase 6 enzymatic inhibition assay, IC50; assay type: biochemical; settings: read-out: Caspase 6 enzyme inhibition IC50
T3 construct: purchased Enzo Biosciences
T3 sequence (P55212 24-179 limits assumed): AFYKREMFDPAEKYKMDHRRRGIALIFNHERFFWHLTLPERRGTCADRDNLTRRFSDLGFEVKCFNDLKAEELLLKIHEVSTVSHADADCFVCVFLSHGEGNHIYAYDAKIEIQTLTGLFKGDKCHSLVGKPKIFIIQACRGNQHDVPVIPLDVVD
T3 sequence (P55212 194-293 limits assumed): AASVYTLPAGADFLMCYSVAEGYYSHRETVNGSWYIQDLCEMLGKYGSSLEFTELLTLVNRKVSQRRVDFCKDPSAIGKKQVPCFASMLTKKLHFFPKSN
Description: as §1, §2

Caspase 7 = molecular target: T4, Caspase 7 (Homo sapiens, UniProt P55210); assay: Caspase 7 enzymatic inhibition assay, IC50; assay type: biochemical; settings: read-out: Caspase 7 enzyme inhibition IC50
T4 construct: purchased Enzo Biosciences
T4 sequence (P55210 24-198 limits assumed): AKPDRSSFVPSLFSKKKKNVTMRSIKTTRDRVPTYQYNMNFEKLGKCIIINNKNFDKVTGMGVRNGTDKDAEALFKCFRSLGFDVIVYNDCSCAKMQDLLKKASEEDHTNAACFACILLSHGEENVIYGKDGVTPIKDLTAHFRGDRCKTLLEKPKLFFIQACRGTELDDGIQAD
T4 sequence (P55210 207-303 limits assumed): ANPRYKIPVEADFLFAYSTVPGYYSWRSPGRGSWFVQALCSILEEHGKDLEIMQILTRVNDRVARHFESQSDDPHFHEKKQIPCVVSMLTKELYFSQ
Description: as §1, §2

[1] = Rodent model of ulcerative colitis induced by TNBS; assay type: in vivo, Sprague-Dawley rats
Description: Compounds of the present invention were tested by oral administration in a rodent model of ulcerative colitis (UC). Ulcerative colitis was induced in Sprague-Dawley rats by instillation of 48 mg/kg […], (TNBS), through the rectum. Testing included 4 active treatment groups and one vehicle control group.
Effect of TNBS-Induced UC in Vehicle Treated Control Group, (Group 1):
Rats were administered of 0.5% vehicle carboxy methylcellulose, (CMC), twice daily starting 24 hours after the instillation of TNBS.
At the termination of the study on DAY 7, the average colon weight in the diseased rats was 5.904±2.208 g, the average colon length was 11.0±1.4 cm and the average distal colon width was 3.1±1.0 cm. Severe adhesions involving multiple intestinal loops, severe stricture resulting in proximal colon distension, ulcers of 6.4±0.4 cm in length, and colonic wall thickness of 3.5±0.8 mm combined to yield an overall colonic score of 11.5±0.8 in the diseased rats. […] Subacute inflammation (sub/mucosal and transmural/serosal were graded separately) was characterized by infiltration and aggregation of neutrophils, eosinophils, lymphocytes, plasma cells, and macrophages. Mucosal necrosis was characterized by damage to, necrosis of, or complete loss of colonic glands. Erosions were characterized by coagulative necrosis or loss of surface epithelium superficial to the muscularis mucosae. Submucosal edema was characterized by expansion of the submucosa by clear space or pale eosinophilic fluid, variably accompanied by dilation of lymphatic vessels and similar edematous expansion of the lamina propria. Epithelial hyperplasia was characterized by elongation of colonic glands and increased numbers of epithelial mitotic figures.

[2] = 10 mg/kg once daily oral, starting 24 hours after TNBS
[3] = Group 2, prednisolone 10 mg/kg once daily oral, DAY 7

IC50 (Caspase-1): ≤ 10 nM | IC50 (Caspase-3): ≥ 1000 nM | IC50 (Caspase 6): ≥ 1000 nM | IC50 (Caspase 7): ≥ 1000 nM
SMILES: Cc1ccccc1NC(=O)C(=O)N[C@@H](C)C(=O)N[C@@H](CCC(=O)O)C(=O)COc1c(F)c(F)cc(F)c1F [Example 21, (S)-4-((S)-2-(2-((2-methylphenyl)amino)-2-oxoacetamido)propanamido)-5-oxo-6-(2,3,5,6-tetrafluorophenoxy)hexanoic acid]

IC50 (Caspase-1): ≤ 10 nM | IC50 (Caspase-3): ≥ 1000 nM | IC50 (Caspase 6): ≥ 1000 nM | IC50 (Caspase 7): ≥ 1000 nM
SMILES: COc1ccccc1NC(=O)C(=O)N[C@@H](C)C(=O)N[C@@H](CCC(=O)O)C(=O)COc1c(F)c(F)cc(F)c1F [Example 22, (S)-4-((S)-2-(2-((2-methyoxyphenyl)amino)-2-oxoacetamido)propanamido)-5-oxo-6-(2,3,5,6-tetrafluorophenoxy)hexanoic acid]

IC50 (Caspase-1): ≤ 10 nM | IC50 (Caspase-3): ≥ 1000 nM | IC50 (Caspase 6): ≥ 1000 nM | IC50 (Caspase 7): ≥ 1000 nM
SMILES: COc1cccc(NC(=O)C(=O)N[C@@H](C)C(=O)N[C@@H](CCC(=O)O)C(=O)COc2c(F)c(F)cc(F)c2F)c1 [Example 23, (S)-4-((S)-2-(2-((3-methyoxyphenyl)amino)-2-oxoacetamido)propanamido)-5-oxo-6-(2,3,5,6-tetrafluorophenoxy)hexanoic acid]

IC50 (Caspase-1): ≤ 10 nM | IC50 (Caspase-3): ≥ 1000 nM | IC50 (Caspase 6): ≥ 1000 nM | IC50 (Caspase 7): ≥ 1000 nM
SMILES: COc1ccc(NC(=O)C(=O)N[C@@H](C)C(=O)N[C@@H](CCC(=O)O)C(=O)COc2c(F)c(F)cc(F)c2F)cc1 [Example 24, (S)-4-((S)-2-(2-((4-methyoxyphenyl)amino)-2-oxoacetamido)propanamido)-5-oxo-6-(2,3,5,6-tetrafluorophenoxy)hexanoic acid]

IC50 (Caspase-1): ≤ 10 nM | IC50 (Caspase-3): ≥ 1000 nM | IC50 (Caspase 6): ≥ 1000 nM | IC50 (Caspase 7): ≥ 1000 nM
SMILES: Cc1ccc(NC(=O)C(=O)N[C@@H](C)C(=O)N[C@@H](CCC(=O)O)C(=O)COc2c(F)c(F)cc(F)c2F)nc1 [Example 25]

IC50 (Caspase-1): ≤ 10 nM | IC50 (Caspase-3): ≥ 1000 nM | IC50 (Caspase 6): ≥ 1000 nM | IC50 (Caspase 7): ≥ 1000 nM
SMILES: C[C@H](NC(=O)C(=O)Nc1cccc(C(F)(F)F)c1)C(=O)N[C@@H](CCC(=O)O)C(=O)COc1c(F)c(F)cc(F)c1F [Example 26, (S)-5-oxo-4-((S)-2-(2-oxo-2-((3-(trifluoromethyl)phenyl)amino)acetamido)propanamido)-6-(2,3,5,6-tetrafluorophenoxy) hexanoic acid]

IC50 (Caspase-1): ≤ 10 nM | IC50 (Caspase-3): ≥ 1000 nM | IC50 (Caspase 6): ≥ 1000 nM | IC50 (Caspase 7): ≥ 1000 nM
SMILES: C[C@H](NC(=O)C(=O)Nc1ccc(C(F)(F)F)cc1)C(=O)N[C@@H](CCC(=O)O)C(=O)COc1c(F)c(F)cc(F)c1F [Example 27, (S)-5-oxo-4-((S)-2-(2-oxo-2-((4-(trifluoromethyl)phenyl)amino)acetamido)propanamido)-6-(2,3,5,6-tetrafluorophenoxy) hexanoic acid]

IC50 (Caspase-1): ≤ 10 nM | IC50 (Caspase-3): ≥ 1000 nM | IC50 (Caspase 6): ≥ 1000 nM | IC50 (Caspase 7): ≥ 1000 nM
SMILES: C[C@H](NC(=O)C(=O)Nc1c(F)cccc1F)C(=O)N[C@@H](CCC(=O)OCc1ccccc1)C(=O)COc1c(F)c(F)cc(F)c1F [Example 28, benzyl(S)-4-((S)-2-(2-((2,6-difluorophenyl)amino)-2-oxoacetamido)propanamido)-5-oxo-6-(2,3,5,6-tetrafluorophenoxy)hexanoate]

IC50 (Caspase-1): ≤ 10 nM | IC50 (Caspase-3): ≥ 1000 nM | IC50 (Caspase 6): ≥ 1000 nM | IC50 (Caspase 7): ≥ 1000 nM
SMILES: C[C@H](NC(=O)C(=O)Nc1ccc(Cl)cn1)C(=O)N[C@@H](CCC(=O)O)C(=O)COc1c(F)c(F)cc(F)c1F [Example 29, (S)-4-((S)-2-(2-((5-chloropyridin-2-yl)amino)-2-oxoacetamido)propanamido)-5-oxo-6-(2,3,5,6-tetrafluorophenoxy)hexanoic acid]

IC50 (Caspase-1): ≤ 10 nM | IC50 (Caspase-3): ≥ 1000 nM | IC50 (Caspase 6): ≥ 1000 nM | IC50 (Caspase 7): ≥ 1000 nM
SMILES: CC(=O)c1ccc(NC(=O)C(=O)N[C@@H](C)C(=O)N[C@@H](CCC(=O)O)C(=O)COc2c(F)c(F)cc(F)c2F)cc1 [Example 30, (S)-4-((S)-2-(2-((4-acetylphenyl)amino)-2-oxoacetamido)propanamido)-5-oxo-6-(2,3,5,6-tetrafluorophenoxy)hexanoic acid]

IC50 (Caspase-1): ≤ 10 nM | IC50 (Caspase-3): ≥ 1000 nM | IC50 (Caspase 6): ≥ 1000 nM | IC50 (Caspase 7): ≥ 1000 nM
SMILES: C[C@H](NC(=O)C(=O)Nc1cccc(-c2nnn[nH]2)c1)C(=O)N[C@@H](CCC(=O)O)C(=O)COc1c(F)c(F)cc(F)c1F [Example 31, (S)-4-((S)-2-(2-((3-(1H-tetrazol-5-yl)phenyl)amino)-2-oxoacetamido)propanamido)-5-oxo-6-(2,3,5,6-tetrafluorophenoxy)hexanoic acid]

IC50 (Caspase-1): ≤ 10 nM | IC50 (Caspase-3): ≥ 1000 nM | IC50 (Caspase 6): ≥ 1000 nM | IC50 (Caspase 7): ≥ 1000 nM
SMILES: C[C@H](NC(=O)C(=O)Nc1ccccc1C#N)C(=O)N[C@@H](CCC(=O)O)C(=O)COc1c(F)c(F)cc(F)c1F [Example 32, (S)-4-((S)-2-(2-((2-cyanophenyl)amino)-2-oxoacetamido)propanamido)-5-oxo-6-(2,3,5,6-tetrafluorophenoxy)hexanoic acid]

SMILES: C[C@]12C=CC(=O)C=C1CC[C@@H]1[C@@H]2[C@@H](O)C[C@@]2(C)[C@H]1CC[C@]2(O)C(=O)CO [Prednisolone, reference compound]
all measured colon parameters [1, 2]: significantly improved | animal health as reflected by body weight [1, 2]: improved animal health by DAY 4 | average inhibition of the histological parameters [1, 2]: 40% | reduction in the overall colonic score [1, 2]: 67% | colon histology: Edema, Submucosal, Mean [1, 3]: 2.3 | colon histology: Erosion/ Ulceration, Mean [1, 3]: 2.9 | colon histology: Hyperplasia, Epithelial, Mean [1, 3]: 2.9 | colon histology: Necrosis, Mucosal/ Gland Loss, Mean [1, 3]: 2.9 | colon histology: SUM Score, Mean [1, 3]: 16.3 | colon histology: Subacute Inflammation, Mucosal/ Submucosal, Mean [1, 3]: 3.5 | colon histology: Subacute Inflammation, Transmural/ Serosal, Mean [1, 3]: 2.8 | average animal weight, Mean ([1]; Group 2, prednisolone 10 mg/kg once daily oral, study day 0): 235 g | average animal weight, Mean ([1]; Group 2, prednisolone 10 mg/kg once daily oral, study day 1): 232 g | average animal weight, Mean ([1]; Group 2, prednisolone 10 mg/kg once daily oral, study day 2): 221 g | average animal weight, Mean ([1]; Group 2, prednisolone 10 mg/kg once daily oral, study day 3): 223 g | average animal weight, Mean ([1]; Group 2, prednisolone 10 mg/kg once daily oral, study day 4): 223 g | average animal weight, Mean ([1]; Group 2, prednisolone 10 mg/kg once daily oral, study day 5): 227 g | average animal weight, Mean ([1]; Group 2, prednisolone 10 mg/kg once daily oral, study day 6): 227 g | average animal weight, Mean ([1]; Group 2, prednisolone 10 mg/kg once daily oral, study day 7): 229 g | average animal weight, Mean ([1]; Group 2, prednisolone 10 mg/kg once daily oral, study day −1): 249 g | average animal weight, Mean ([1]; Group 2, prednisolone 10 mg/kg once daily oral, study day −5): 222 g
